According to PubChem BioAssay AID248 (DTP/NCI, 2004):
Values joined by “and” are separate entries in the source; they are usually repeats but may differ in a detail not shown here. Equal values may be shown once. Inconclusive results and toxic doses are left out.

Test system: L1210 leukemia ip in BDF1 mice, survival T/C
Assay: NCI In Vivo Anticancer Drug Screen. Data for tumor model L1210 Leukemia (intraperitoneal) in B6D2F1 (BDF1) mice
Details: higher = longer survival
Method in brief: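 Mice bearing the transplanted tumor received compound or vehicle. Survival of the treated group was divided by that of the vehicle-treated control group to give the ratio.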

For `CN(N=O)C(=O)NC(C=O)C(O)C(O)C(O)CO` (stereo unspecified), the T/C (endpoint: mean survival time, dose: 3.5 mg/kg/injection, schedule: Q#A X Z (ip), vehicle: saline) was 108 % of control, the T/C (endpoint: mean survival time, dose: 4.0 mg/kg/injection, schedule: Q#A X Z (ip), vehicle: saline) was 105 % of control and the T/C (endpoint: mean survival time, dose: 5.5 mg/kg/injection, schedule: Q#A X Z (ip), vehicle: saline) was 116 % of control. The T/C (endpoint: mean survival time, dose: 6.0 mg/kg/injection, schedule: Q01DX Z (ip), vehicle: saline) was 105 % of control, the T/C (endpoint: mean survival time, dose: 6.0 mg/kg/injection, schedule: Q#A X Z (ip), vehicle: saline) was 103 % of control and the T/C (endpoint: mean survival time, dose: 8.0 mg/kg/injection, schedule: Q01DX Z (ip), vehicle: saline) was 97 % of control. For the same compound, the T/C (endpoint: mean survival time, dose: 8.5 mg/kg/injection, schedule: Q#A X Z (ip), vehicle: saline) was 118 % of control, the T/C (endpoint: mean survival time, dose: 9.0 mg/kg/injection, schedule: Q#A X Z (ip), vehicle: saline) was 106 % of control and the T/C (endpoint: mean survival time, dose: 12.0 mg/kg/injection, schedule: Q01DX Z (ip), vehicle: saline) was 105 % of control and 106 % of control. The T/C (endpoint: mean survival time, dose: 12.5 mg/kg/injection, schedule: Q01DX009 (ip), vehicle: saline) was 95 % of control and 101 % of control, the T/C (endpoint: mean survival time, dose: 12.5 mg/kg/injection, schedule: Q01DX Z (ip), vehicle: saline) was 96 % of control and 101 % of control and the T/C (endpoint: mean survival time, dose: 18.0 mg/kg/injection, schedule: Q01DX Z (ip), vehicle: saline) was 108 % of control. The T/C (endpoint: mean survival time, dose: 24.5 mg/kg/injection, schedule: Q01DX Z (ip), vehicle: water) was 111 % of control, the T/C (endpoint: mean survival time, dose: 25.0 mg/kg/injection, schedule: Q01DX009 (ip), vehicle: saline) was 101 % of control and 103 % of control and the T/C (endpoint: mean survival time, dose: 25.0 mg/kg/injection, schedule: Q01DX Z (im), vehicle: saline) was 109 % of control. For the same compound, the T/C (endpoint: mean survival time, dose: 26.0 mg/kg/injection, schedule: Q01DX Z (ip), vehicle: saline) was 118 % of control, the T/C (endpoint: mean survival time, dose: 26.0 mg/kg/injection, schedule: Q01DX Z (sc), vehicle: saline) was 110 % of control and the T/C (endpoint: mean survival time, dose: 30.0 mg/kg/injection, schedule: Q#A X Z (ip), vehicle: saline) was 112 % of control. For the same compound, the T/C (endpoint: mean survival time, dose: 34.0 mg/kg/injection, schedule: Q03DX005 (ip), vehicle: saline) was 103 % of control, the T/C (endpoint: mean survival time, dose: 36.0 mg/kg/injection, schedule: Q03DX003 (ip), vehicle: saline) was 118 % of control and the T/C (endpoint: mean survival time, dose: 40.0 mg/kg/injection, schedule: Q01DX009 (iv), vehicle: saline) was 120 % of control. For the same compound, the T/C (endpoint: mean survival time, dose: 40.0 mg/kg/injection, schedule: Q01DX Z (ip), vehicle: saline) was 151 % of control, the T/C (endpoint: mean survival time, dose: 40.0 mg/kg/injection, schedule: Q01DX Z (sc), vehicle: saline) was 106 % of control and 107 % of control and 112 % of control and the T/C (endpoint: mean survival time, dose: 50.0 mg/kg/injection, schedule: Q01DX009 (ip), vehicle: saline) was 110 % of control and 111 % of control. The T/C (endpoint: mean survival time, dose: 50.0 mg/kg/injection, schedule: Q01DX Z (im), vehicle: saline) was 100 % of control, the T/C (endpoint: mean survival time, dose: 52.0 mg/kg/injection, schedule: Q03DX005 (ip), vehicle: saline) was 108 % of control and the T/C (endpoint: mean survival time, dose: 60.0 mg/kg/injection, schedule: Q01DX009 (iv), vehicle: saline) was 111 % of control. The T/C (endpoint: mean survival time, dose: 60.0 mg/kg/injection, schedule: Q01DX Z (ip), vehicle: saline) was 160 % of control, the T/C (endpoint: mean survival time, dose: 60.0 mg/kg/injection, schedule: Q01DX Z (iv), vehicle: saline) was 115 % of control and the T/C (endpoint: mean survival time, dose: 78.0 mg/kg/injection, schedule: Q03DX005 (ip), vehicle: saline) was 118 % of control. For the same compound, the T/C (endpoint: mean survival time, dose: 78.0 mg/kg/injection, schedule: Q03DX 5 (iv), vehicle: saline) was 117 % of control, the T/C (endpoint: mean survival time, dose: 80.0 mg/kg/injection, schedule: Q03DX004 (ip), vehicle: saline) was 151 % of control and the T/C (endpoint: mean survival time, dose: 80.0 mg/kg/injection, schedule: Q07DX001 (ip), vehicle: saline) was 124 % of control. The T/C (endpoint: mean survival time, dose: 90.0 mg/kg/injection, schedule: Q01DX 1 (iv), vehicle: saline) was 118 % of control, the T/C (endpoint: mean survival time, dose: 90.0 mg/kg/injection, schedule: Q01DX009 (iv), vehicle: saline) was 115 % of control and the T/C (endpoint: mean survival time, dose: 90.0 mg/kg/injection, schedule: Q01DX Z (ip), vehicle: saline) was 152 % of control and 166 % of control. For the same compound, the T/C (endpoint: mean survival time, dose: 90.0 mg/kg/injection, schedule: Q01DX Z (iv), vehicle: saline) was 121 % of control, the T/C (endpoint: mean survival time, dose: 90.0 mg/kg/injection, schedule: Q03DX 5 (iv), vehicle: saline) was 114 % of control and the T/C (endpoint: mean survival time, dose: 90.0 mg/kg/injection, schedule: Q07DX 2 (iv), vehicle: saline) was 106 % of control. The T/C (endpoint: mean survival time, dose: 99.5 mg/kg/injection, schedule: Q01DX Z (ip), vehicle: water) was 111 % of control, the T/C (endpoint: mean survival time, dose: 100.0 mg/kg/injection, schedule: Q01DX009 (ip), vehicle: saline) was 101 % of control and 120 % of control and the T/C (endpoint: mean survival time, dose: 100.0 mg/kg/injection, schedule: Q01DX Z (im), vehicle: saline) was 120 % of control and 124 % of control. For the same compound, the T/C (endpoint: mean survival time, dose: 100.0 mg/kg/injection, schedule: Q01DX Z (oral), vehicle: saline) was 111 % of control, the T/C (endpoint: mean survival time, dose: 104.0 mg/kg/injection, schedule: Q01DX Z (oral), vehicle: saline) was 101 % of control and the T/C (endpoint: mean survival time, dose: 120.0 mg/kg/injection, schedule: Q01DX001 (ip), vehicle: saline) was 119 % of control. The T/C (endpoint: mean survival time, dose: 120.0 mg/kg/injection, schedule: Q01DX 1 (iv), vehicle: saline) was 112 % of control, the T/C (endpoint: mean survival time, dose: 120.0 mg/kg/injection, schedule: Q07DX 2 (iv), vehicle: saline) was 102 % of control and the T/C (endpoint: mean survival time, dose: 125.0 mg/kg/injection, schedule: Q01DX001 (ip), vehicle: saline) was 114 % of control. The T/C (endpoint: mean survival time, dose: 135.0 mg/kg/injection, schedule: Q01DX Z (iv), vehicle: saline) was 95 % of control, the T/C (endpoint: mean survival time, dose: 135.0 mg/kg/injection, schedule: Q01DX Z (sc), vehicle: saline) was 108 % of control and 91 % of control and 92 % of control and the T/C (endpoint: mean survival time, dose: 160.0 mg/kg/injection, schedule: Q01DX Z (oral), vehicle: saline) was 101 % of control. For the same compound, the T/C (endpoint: mean survival time, dose: 180.0 mg/kg/injection, schedule: Q01DX 1 (iv), vehicle: saline) was 109 % of control, the T/C (endpoint: mean survival time, dose: 180.0 mg/kg/injection, schedule: Q03DX Z (ip), vehicle: saline) was 151 % of control and the T/C (endpoint: mean survival time, dose: 180.0 mg/kg/injection, schedule: Q07DX 2 (iv), vehicle: saline) was 111 % of control. The T/C (endpoint: mean survival time, dose: 182.0 mg/kg/injection, schedule: Q07DX Z (ip), vehicle: saline) was 123 % of control, the T/C (endpoint: mean survival time, dose: 200.0 mg/kg/injection, schedule: Q01DX009 (ip), vehicle: saline) was 90 % of control and the T/C (endpoint: mean survival time, dose: 200.0 mg/kg/injection, schedule: Q01DX Z (im), vehicle: saline) was 91 % of control. The T/C (endpoint: mean survival time, dose: 200.0 mg/kg/injection, schedule: Q01DX Z (ip), vehicle: saline) was 87 % of control, the T/C (endpoint: mean survival time, dose: 200.0 mg/kg/injection, schedule: Q01DX Z (oral), vehicle: saline) was 105 % of control and the T/C (endpoint: mean survival time, dose: 240.0 mg/kg/injection, schedule: Q01DX Z (oral), vehicle: saline) was 101 % of control. For the same compound, the T/C (endpoint: mean survival time, dose: 250.0 mg/kg/injection, schedule: Q01DX001 (ip), vehicle: saline) was 115 % of control, the T/C (endpoint: mean survival time, dose: 270.0 mg/kg/injection, schedule: Q01DX 1 (iv), vehicle: saline) was 98 % of control and the T/C (endpoint: mean survival time, dose: 270.0 mg/kg/injection, schedule: Q07DX 2 (iv), vehicle: saline) was 106 % of control. For the same compound, the T/C (endpoint: mean survival time, dose: 400.0 mg/kg/injection, schedule: Q01DX Z (oral), vehicle: saline) was 117 % of control, the T/C (endpoint: mean survival time, dose: 405.0 mg/kg/injection, schedule: Q01DX001 (ip), vehicle: saline) was 108 % of control and 89 % of control and the T/C (endpoint: mean survival time, dose: 420.0 mg/kg/injection, schedule: Q07DX Z (ip), vehicle: saline) was 93 % of control. The T/C (endpoint: mean survival time, dose: 500.0 mg/kg/injection, schedule: Q01DX001 (ip), vehicle: saline) was 117 % of control, the T/C (endpoint: mean survival time, dose: 540.0 mg/kg/injection, schedule: Q01DX Z (oral), vehicle: saline) was 95 % of control and the T/C (endpoint: mean survival time, dose: 800.0 mg/kg/injection, schedule: Q01DX Z (oral), vehicle: saline) was 105 % of control. For the same compound, the T/C (endpoint: mean survival time, dose: 1000.0 mg/kg/injection, schedule: Q01DX001 (ip), vehicle: saline) was 97 % of control, the T/C (endpoint: median survival time, dose: 25.0 mg/kg/injection, schedule: Q01DX017 (ip), vehicle: water) was 122 % of control and the T/C (endpoint: median survival time, dose: 50.0 mg/kg/injection, schedule: Q01DX017 (ip), vehicle: water) was 150 % of control.

With `CCCCCCCCCCCCCCCCCCOc1ccc(Cl)cc1Cl` the T/C (endpoint: mean survival time, dose: 100.0 mg/kg/injection, schedule: Q04DX002 (ip), vehicle: other) was 98 % of control, the T/C (endpoint: mean survival time, dose: 200.0 mg/kg/injection, schedule: Q04DX002 (ip), vehicle: other) was 102 % of control and the T/C (endpoint: mean survival time, dose: 400.0 mg/kg/injection, schedule: Q04DX002 (ip), vehicle: other) was 102 % of control.

For `[B-][NH2+]c1ccc([NH2+][B-])cc1`, the T/C (endpoint: mean survival time, dose: 100.0 mg/kg/injection, schedule: Q01DX001 (ip), vehicle: saline) was 96 % of control, the T/C (endpoint: mean survival time, dose: 200.0 mg/kg/injection, schedule: Q01DX001 (ip), vehicle: saline) was 91 % of control and the T/C (endpoint: mean survival time, dose: 400.0 mg/kg/injection, schedule: Q01DX001 (ip), vehicle: saline) was 100 % of control.

`CCc1ccccc1NC(=S)Nc1ccccc1` was tested, and the T/C (endpoint: mean survival time, dose: 100.0 mg/kg/injection, schedule: Q04DX002 (ip), vehicle: Klucel (hydroxypropylcellulose) (HPC)) was 105 % of control, the T/C (endpoint: mean survival time, dose: 200.0 mg/kg/injection, schedule: Q04DX002 (ip), vehicle: Klucel (hydroxypropylcellulose) (HPC)) was 105 % of control and the T/C (endpoint: mean survival time, dose: 400.0 mg/kg/injection, schedule: Q04DX002 (ip), vehicle: Klucel (hydroxypropylcellulose) (HPC)) was 105 % of control.
